Assay results as given in PubChem BioAssay (NCI).
Where “and” joins values, the source holds several entries; their conditions need not be identical. Identical values can stand only once.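 Growth conditions: 96-well plates. Treatment: test compound, 48 hours, 5 concentrations. Analysis: linear interpolation between bracketing concentrations; unreached endpoints set to highest concentration. GI50: concentration for 50% inhibition of growth. TGI: total growth inhibition.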

Assays:
Assay in all cases: NCI-60 cell line screen, 48 h
IGROV1 ovarian = tested on: IGROV1 ovarian
MDA-MB-435 = tested on: MDA-MB-435
HOP-92 NSCLC = tested on: HOP-92 NSCLC
HT29 colon = tested on: HT29 colon
HL-60(TB) leukemia = tested on: HL-60(TB) leukemia
RXF 393 renal = tested on: RXF 393 renal
UO-31 renal = tested on: UO-31 renal
RPMI-8226 leukemia = tested on: RPMI-8226 leukemia
EKVX NSCLC = tested on: EKVX NSCLC
HOP-62 NSCLC = tested on: HOP-62 NSCLC

Structure (SMILES)	TGI (IGROV1 ovarian)	TGI (MDA-MB-435)	TGI (HOP-92 NSCLC)	TGI (HT29 colon)	TGI (HL-60(TB) leukemia)	TGI (RXF 393 renal)	TGI (UO-31 renal)	TGI (RPMI-8226 leukemia)	TGI (EKVX NSCLC)	TGI (HOP-62 NSCLC)	GI50 (MDA-MB-435)	GI50 (HOP-92 NSCLC)	GI50 (HL-60(TB) leukemia)	GI50 (RXF 393 renal)	GI50 (UO-31 renal)	GI50 (RPMI-8226 leukemia)	GI50 (EKVX NSCLC)	GI50 (HOP-62 NSCLC)	GI50 (IGROV1 ovarian)	GI50 (HT29 colon)
Nc1nc(N)c(N=O)c(Nc2ccc(O)cc2)n1	44.8 µM	> 100 µM	> 100 µM	> 100 µM	> 71.3 µM	> 100 µM	> 86.7 µM	> 68.2 µM	> 100 µM	> 57.2 µM	–	–	–	–	–	–	–	–	–	–
C=C1C(=O)O[C@H]2[C@H]1CC/C(COC(=O)CCCCC(=O)OC/C1=C/CC[C@@]3(C)O[C@H]3[C@H]3OC(=O)C(=C)[C@@H]3CC1)=C\CC[C@@]1(C)O[C@@H]21	–	8.04 µM	4.56 µM	–	3.94 µM	2.31 µM	4.57 µM	5.59 µM	> 100 µM	9.61 µM	2.39 µM	1.64 µM	0.722 µM	0.967 µM	1.41 µM	1.81 µM	2.83 µM	3.15 µM	–	–
COc1ccc(N(CC(=O)NCCC[Te]c2ccccc2)C(=O)c2ccccc2)cc1	8.27 µM	30.2 µM	–	> 100 µM	5.73 µM	30.3 µM	10.9 µM	19.2 µM	5.27 µM	5.32 µM	8.06 µM	4.1 µM	2.12 µM	12 µM	2.77 µM	3.18 µM	0.407 µM	2.41 µM	2.88 µM	3.84 µM
CCC(C)(C)C(=O)O[C@H]1C[C@@H](C)C=C2C=C[C@H](C)[C@H](CC[C@@H]3C[C@@H](O)CC(=O)O3)[C@H]21	13.2 µM and 4.5 µM	21 µM	–	20.2 µM and 21.3 µM	20.8 µM and > 30 µM	8.5 µM and 2.48 µM	14.7 µM and 10.1 µM	28.5 µM and > 30 µM	19.3 µM and > 30 µM	20.3 µM and > 30 µM	8.03 µM	0.0335 µM	6.02 µM	2.06 µM	2.85 µM	3.79 µM	2.78 µM	7.37 µM	2.08 µM	–
O=C1NN(c2ccc(C(=O)O)cc2)C(=O)/C1=C\c1ccc([N+](=O)[O-])o1	52.6 µM	> 100 µM	74.8 µM	35.8 µM	91.7 µM	> 100 µM	> 100 µM	83.8 µM	> 100 µM	> 100 µM	32.1 µM	29 µM	34.5 µM	40.7 µM	59.1 µM	30.6 µM	> 100 µM	> 100 µM	20.5 µM	18.6 µM
Oc1ccc2cc(Br)ccc2c1-c1c(O)ccc2cc(Br)ccc12	11.8 µM	11.2 µM	7.93 µM	3.34 µM	8.6 µM	5.93 µM	9.92 µM	9.1 µM	13.5 µM	11.1 µM	3.04 µM	3.01 µM	2.87 µM	2.79 µM	1.96 µM	2.81 µM	3.54 µM	2.62 µM	2.06 µM	1.75 µM
COc1cc2c3c(n(CCCCOC(=O)C(F)(F)F)c(=O)c2cc1OC)-c1cc2c(cc1C3=O)OCO2	> 100 µM	> 100 µM	> 100 µM	> 100 µM	> 100 µM	> 100 µM	> 100 µM	> 100 µM	> 100 µM	–	> 100 µM	> 82.9 µM	> 100 µM	> 100 µM	> 100 µM	> 20.4 µM	> 100 µM	10.4 µM	> 26.3 µM	> 100 µM
Cc1nn(-c2nc3ccccc3s2)c(C)c1Oc1ccccc1O	35.8 µM	21.3 µM	16.6 µM	20.3 µM	18.1 µM	8.38 µM	18.6 µM	34.8 µM	22.3 µM	23.7 µM	9.36 µM	0.162 µM	4.02 µM	3.09 µM	4.44 µM	8.13 µM	10.4 µM	10.6 µM	12.6 µM	4.95 µM
CC1=CC(=NC(=O)CBr)C=C/C1=N\S(=O)(=O)c1ccccc1	12.1 µM	13.7 µM	6.77 µM	6.7 µM	7.94 µM	3.89 µM	12.6 µM	9.35 µM	–	25.1 µM	3.4 µM	1.8 µM	2.78 µM	1.77 µM	2.77 µM	2.9 µM	–	11.9 µM	3.1 µM	2.58 µM
CCOc1c(Br)cc(C2C(C(=O)OC)=CN(C)C=C2C(=O)OC)cc1OC	> 100 µM	> 100 µM	> 100 µM	> 100 µM	> 100 µM	> 100 µM	> 100 µM	> 100 µM	–	> 100 µM	37.3 µM	33.4 µM	37.8 µM	24.1 µM	28.8 µM	45.5 µM	–	> 100 µM	> 100 µM	45.6 µM
Cc1cc2c(cc1Cl)SC1=CC(=O)N(c3ccccc3)C1=NS2(=O)=O	> 100 µM	> 100 µM	> 100 µM	67.8 µM	63.8 µM	> 100 µM	> 100 µM	36.5 µM	> 100 µM	> 100 µM	> 100 µM	34.3 µM	23.8 µM	> 100 µM	54 µM	14.4 µM	> 100 µM	46 µM	53.9 µM	21.5 µM
Cn1cncc1[C@@](N)(c1ccc(Cl)cc1)c1ccc2c(c1)c(-c1cccc(Cl)c1)cc(=O)n2C	13 µM	1.93 µM	2.69 µM	6.24 µM	4.62 µM	11.5 µM	6.97 µM	9.79 µM	13.1 µM	18.4 µM	0.172 µM	0.174 µM	1.29 µM	2.41 µM	1.97 µM	1.58 µM	2.22 µM	5.51 µM	2.33 µM	1.27 µM
CC(C)=CCC[C@H](C)[C@@H]1CC[C@]2(C)C3CC[C@]4(OC4(C)C)C(CCCO)[C@]3(C)CC[C@@]12C (stereo partly drawn)	> 100 µM	48.8 µM	34.7 µM	> 100 µM	45.3 µM	37.6 µM	> 100 µM	> 100 µM	50.7 µM	44.4 µM	22.6 µM	14.5 µM	20.7 µM	18.3 µM	33.5 µM	33.6 µM	20.7 µM	20.8 µM	81.7 µM	34 µM
Oc1ccccc1-c1nn(CNc2cccc(Cl)c2)c(=S)o1	> 100 µM	> 100 µM	31.7 µM	> 100 µM	–	> 100 µM	> 100 µM	38.5 µM	> 100 µM	> 100 µM	77.1 µM	1.86 µM	–	82.4 µM	> 100 µM	15.3 µM	67.2 µM	90.8 µM	81.5 µM	18.5 µM
Cn1cc(C2=C(c3cccc4ccccc34)C(=O)NC2=O)c2ccccc21	> 24.1 µM	> 25 µM	24.3 µM	> 25 µM	> 25 µM	9.93 µM	> 25 µM	> 19.9 µM	–	> 25 µM	6.06 µM	8.46 µM	10.4 µM	4.41 µM	7.38 µM	8.18 µM	–	18.5 µM	11.2 µM	7.45 µM
CCOc1cccc(/C=N/NC(=O)c2ccc(Nc3ccnc(C(F)(F)F)c3)cc2)c1O	> 23.9 µM	> 100 µM	> 64.2 µM	> 73.5 µM	5.47 µM	> 49.2 µM	> 25.7 µM	20.6 µM	> 81.8 µM	> 78.5 µM	6.19 µM	1.01 µM	1.33 µM	2.97 µM	0.781 µM	0.359 µM	1.21 µM	2.23 µM	2.32 µM	4.38 µM
CC[C@@H](C(=O)[C@@H](C)[C@@H](O)[C@H](C)[C@@H]1O[C@@H]([C@@H](CC)C(=O)O)CC[C@@H]1C)C1O[C@]2(C=CC(=O)[C@]3(CC[C@@](C)([C@H]4CC[C@](O)(CC)[C@H](C)O4)O3)O2)[C@H](C)C[C@@H]1C (stereo partly drawn)	20.4 µM	2.8 µM	8.02 µM	16.2 µM	0.332 µM	1.79 µM	11 µM	4.81 µM	18.7 µM	18.3 µM	1.21 µM	1.33 µM	0.0399 µM	0.0416 µM	1.19 µM	0.0868 µM	0.538 µM	0.334 µM	2.44 µM	0.279 µM
C1=Cc2ccccc2Nc2ccccc21	> 100 µM	> 100 µM	> 100 µM	> 100 µM	> 100 µM	> 100 µM	> 100 µM	> 100 µM	> 100 µM	> 100 µM	> 100 µM	86.1 µM	> 100 µM	> 100 µM	> 100 µM	> 100 µM	50 µM	> 100 µM	> 100 µM	> 100 µM
COc1cc(-c2nc(Nc3nc4ccccc4[nH]3)nc(N)c2C#N)cc(OC)c1OC	> 54 µM	16.7 µM	31.8 µM	24.1 µM	> 100 µM	23.7 µM	> 100 µM	> 100 µM	> 100 µM	53.2 µM	0.0886 µM	0.341 µM	0.991 µM	0.378 µM	85.7 µM	12.5 µM	41.4 µM	5.04 µM	6.2 µM	0.877 µM
O=C1CC(c2ccc(N3CCOCC3)cc2)(c2ccsc2)NC(=O)C1Sc1ccccc1Cl (stereo not drawn)	> 100 µM	> 100 µM	> 100 µM	> 100 µM	> 100 µM	> 100 µM	> 100 µM	> 100 µM	> 100 µM	> 100 µM	88.6 µM	11.8 µM	> 100 µM	5.65 µM	34.4 µM	31.6 µM	> 100 µM	60.3 µM	22.4 µM	46.4 µM
O=C(CN1CCN(c2ncnc3ccccc23)CC1)Nc1ccc(Cl)cc1C(=O)c1ccccc1Cl	14.4 µM	2 µM	15.4 µM	9.4 µM	–	1.31 µM	12.6 µM	> 22.2 µM	7.27 µM	6.07 µM	0.589 µM	0.542 µM	0.415 µM	0.61 µM	1.87 µM	0.561 µM	2.74 µM	0.626 µM	1.7 µM	0.394 µM
CC1=C(C(=O)Nc2ccc(F)c(Cl)c2)C(c2ccccc2Cl)NC(=S)N1 (stereo not drawn)	> 50 µM	> 50 µM	> 50 µM	–	> 50 µM	37.7 µM	> 50 µM	> 50 µM	> 50 µM	> 50 µM	30.1 µM	> 50 µM	25.6 µM	16.9 µM	21.3 µM	38.3 µM	> 50 µM	> 50 µM	22.8 µM	–
CCCCCCCCCCCCCC(=O)O[C@H]1CC[C@H](NC(=O)[C@H](OC)[C@H](O)[C@@H](O)[C@H](O)/C=C/C(C)C)C(=O)NC1	8.51 µM and 2.71 µM	51.2 µM and 18.2 µM	4.12 µM	7.29 µM and 12.7 µM	–	0.283 µM	22 µM	11.6 µM and 10.2 µM	36.8 µM and 23.4 µM	51.2 µM and 34 µM	0.00789 µM	0.554 µM	–	–	0.00883 µM	–	–	< 0.001 µM	–	–
COc1ccc2c(c1)C(=O)/C(=C/c1cccc(OCC(=O)Nc3nc4c(s3)CCCC4)c1)O2	0.054 µM	9.42 µM	0.372 µM	1.8 µM	0.681 µM	1.58 µM	0.101 µM	–	8.73 µM	10.4 µM	2.59 µM	0.18 µM	0.241 µM	0.583 µM	0.0544 µM	–	2.52 µM	0.29 µM	< 0.0153 µM	0.642 µM
COc1ccc(-c2[nH]c3ccccc3c2C=C(C#N)C#N)cc1	> 100 µM	0.469 µM	> 100 µM	> 100 µM	0.714 µM	> 100 µM	> 100 µM	–	> 100 µM	21.8 µM	0.13 µM	1.21 µM	0.271 µM	0.511 µM	–	–	0.648 µM	0.962 µM	–	0.371 µM
